Measured values from patent US20070190172A1, “Enhanced activity biocidal hydrogen peroxide composition” (ASEPTIX TECHNOLOGIES B.V., priority 2006, published 2007).

Experiments:
Adenovirus = assay: EN 14476 virucidal quantitative suspension test; format: cell-based
Procedure: (§1) In a similar way, fungicidal and virucidal activity was tested using tests dedicated for use with fungi of viruses. For fungi or yeasts, the tests according to European norms EN 1275, EN 1650 or EN 13624 were used. For viruses, the test according to European norm EN 14476 was used.
(§2) A composition comprising 2% H2O2 and 1% Monafax 1214 was prepared and tested against Vacciniavirus, Feline Calici Virus and Adenovirus according to the […] norm:
(§3) EN 14476—Chemical disinfectants and antiseptics—Virucidal quantitative suspension test for chemical disinfectants and antiseptics used in human medicine—Test methods and requirements (phase 2/step 1).

Feline Calici Virus = assay: EN 14476 virucidal quantitative suspension test; format: cell-based
Procedure: as §1, §2, §3

Staphylococcus aureus [1] = conditions: background statement; cited from earlier work
Staphylococcus aureus [2] = assay: EN 1276 bactericidal suspension test; format: cell-based; conditions: 1.2% H2O2 + 0.6% surfactant
From the text: (§4) Biocidal activity of a composition for use according to the invention is preferably determined by a controlled bactericidal suspension test conform European Norm for chemical disinfectants and antiseptics EN 1276 (EN 1276: Quantitative suspension test for the evaluation of bactericidal activity of chemical disinfectants and antiseptics used in food, industrial, domestic, and institutional areas: test method and requirements). An effective biocidal composition is a composition that provides at least a log 3 reduction after a 1 minute contact time with a Staphylococcus aureus test suspension of 10^8 cfu per ml, preferably at least a log 4 reduction, more preferably at least a log 5 reduction, most preferably at least a log 6 reduction.
(§5) Bactericidal activity of the exemplified compositions was tested using a controlled bactericidal suspension test conform European Norm for chemical disinfectants and antiseptics EN 1276 (EN 1276: Quantitative suspension test for the evaluation of bactericidal activity of chemical disinfectants and antiseptics used in food, industrial, domestic, and institutional areas: test method and requirements). One ml of a test suspension containing about 10^8 cfu of the test microorganism per ml is added to 8 ml of the composition to be tested, and 1 ml milli-Q water is added. In some experiments, a protein load was added to this suspension according to the EN 1276 procedures to simulate unclean practical conditions. To provide for a clean condition 0.3% Bovine Albumin was added and for a dirty condition 3% Bovine Albumin.
(§6) After 1, 2 and 5 minutes contact time, the amount of viable bacteria was determined.

Bacillus cereus = assay: EN 1276 bactericidal suspension test; format: cell-based; conditions: 1.2% H2O2 + 0.6% surfactant
From the text: as §4, §5, §6
(§7) To simulate unclean practical conditions, a protein load was added according to the EN 1276 procedures to bacterial test suspensions. To provide for a clean condition 0.3% Bovine Albumin was added and for a dirty condition 3% Bovine Albumin. The performance of Monafax 1214 was compared with that of the N,N-Dimethyldecylamine-N-oxide (Barlox 10s of Lonza Ltd.). A H2O2 concentration of 1.2% was used and a 0.6% of the respective surfactants. The solution containing Monafax has a pH of around 2.3 and the solution containing Barlox 10s has a pH of around 5.

Candida albicans = assay: EN 1276 bactericidal suspension test; format: cell-based; conditions: 1.2% H2O2 + 0.6% surfactant
From the text: as §4, §5, §6, §7

Enterococcus hirae = assay: EN 1276 bactericidal suspension test; format: cell-based; conditions: 1.2% H2O2 + 0.6% surfactant
From the text: as §4, §5, §6, §7

Lysteria monocytogenes = assay: EN 1276 bactericidal suspension test; format: cell-based; conditions: 1.2% H2O2 + 0.6% surfactant
From the text: as §4, §5, §6, §7

[3] = clean condition 0.3% Bovine Albumin, 2 min
[4] = clean condition 0.3% Bovine Albumin, 5 min
[5] = dirty condition 3% Bovine Albumin, 2 min
[6] = dirty condition 3% Bovine Albumin, 5 min

OO [2% H2O2, hydrogen peroxide]
log reduction, 5 minutes (Adenovirus): log 0.6
log reduction, 10 minutes (Adenovirus): log 0.6
log reduction, 3 minutes (Feline Calici Virus): log 0.2
log reduction, 5 minutes (Feline Calici Virus): log 0.9

OO [3% H2O2, hydrogen peroxide]
log reduction, 5 minutes (Adenovirus): log 0.5
log reduction, 10 minutes (Adenovirus): log 0.6

OO [3% w/w hydrogen peroxide, hydrogen peroxide]
time to achieve a greater than 6 log reduction in Staphylococcus aureus (Staphylococcus aureus [1]): 20 minutes

CCCCCCCCCC[N+](C)(C)[O-] [Barlox 10s (Lonza), N,N-Dimethyldecylamine-N-oxide]
number of colonies, clean, 2 min (Staphylococcus aureus [2]; [3]): >300
number of colonies, clean, 5 min (Staphylococcus aureus [2]; [4]): >300
number of colonies, dirty, 2 min (Staphylococcus aureus [2]; [5]): >300
number of colonies, dirty, 5 min (Staphylococcus aureus [2]; [6]): >300
number of colonies, clean, 2 min (Bacillus cereus; [3]): >300
number of colonies, clean, 5 min (Bacillus cereus; [4]): >300
number of colonies, dirty, 2 min (Bacillus cereus; [5]): >300
number of colonies, dirty, 5 min (Bacillus cereus; [6]): >300
number of colonies, clean, 2 min (Candida albicans; [3]): 300
number of colonies, clean, 5 min (Candida albicans; [4]): 250
number of colonies, dirty, 2 min (Candida albicans; [5]): >300
number of colonies, dirty, 5 min (Candida albicans; [6]): >300
number of colonies, clean, 2 min (Enterococcus hirae; [3]): 8
number of colonies, clean, 5 min (Enterococcus hirae; [4]): 0
number of colonies, dirty, 2 min (Enterococcus hirae; [5]): 6
number of colonies, dirty, 5 min (Enterococcus hirae; [6]): 1
number of colonies, clean, 2 min (Lysteria monocytogenes; [3]): >300
number of colonies, clean, 5 min (Lysteria monocytogenes; [4]): >300
number of colonies, dirty, 2 min (Lysteria monocytogenes; [5]): >300
number of colonies, dirty, 5 min (Lysteria monocytogenes; [6]): >300

OO [hydrogen peroxide]
time to achieve a greater than log 6 reduction in Staphylococcus aureus (Staphylococcus aureus [1]): 20 seconds
